{"source": "patent US20060067947A1", "about": "“Immunotherapeutic for cancer” (Orient Cancer Therapy Co., Ltd., priority 2002, published 2006)", "key": {"CD3+CD161+ NKT cell": {"system": "CD3+CD161+ NKT cell", "assay": "NKT cell measurement by flow cytometry", "format": "in vivo, human", "settings": "Case 2; per date of visit", "description": "Measurement of NKR-P1-bearing NKT cell can be conducted by measuring cell surface antigens (CD3 and CD161) existing specifically on the NKT cell surface. More specifically, peripheral blood lymphocytes are examined with respect to cells with positive CD3 and positive CD161 (CD3+CD161+). That is, CD3 and CD161, NKT cell surface antigens, are measured by the two-color assay through flow cytometry using monoclonal antibody. Here, the term “NKT cell activation” refers to as the CD3+CD161+ NKT cell proportion in lymphocyte being 10% or more and preferably 16% or more. The term “NKT cell activating capability” denotes a capability of increasing the NKT cell proportion to 10% or more and preferably 16% or more, or a capability of further augmenting the NKT cell proportion from a proportion before administration of a certain substance.\n(§1) In the examples, using blood obtained from cancer patients, blood cells were discriminated as positive or negative of the cell surface antigens CD3, CD161 and CD8, with each cell proportion measured according to a conventional method by two-color assay using flow cytometry. At this time, for respective monoclonal antibodies to CD3, CD161 and CD8, those manufactured by Coulter or Becton Dickinson were used."}, "CD3−CD161+ NK cell": {"system": "CD3−CD161+ NK cell", "assay": "NK cell measurement by flow cytometry", "format": "in vivo, human", "settings": "Case 2; per date of visit", "description": "Likewise, the term “(CD3−CD161+)” refers to examination of cells with negative CD3 and positive CD161. This method is useful for NK cell measurement.\nas §1"}, "CD8+ perforin+ cells": {"system": "CD8+ perforin+ cells", "assay": "CD8+ perforin production cell measurement", "format": "in vivo, human", "settings": "Case 2; per date of visit", "description": "Further, the term “CD8+” denotes examination of cells with positive CD8. This method is useful for CTL activation measurement.\nas §1\nTwo among CD3, CD161 and CD8, cell surface antigens, and perforin are measured with respect to peripheral blood lymphocyte according to a conventional method by three-color assay using flow cytometry. More specifically, a fixative is added to sampled blood, thus fixing cells. After addition of membrane permeating solution, anti-perforin antibody (manufactured by Pharmingen) is added for reaction. Further, PRE-Cy5 labeled second antibody (manufactured by DAKO) is added for reaction, followed by addition of anti-CD3-PE (Coulter 6604627) antibody and anti-CD161-FITC (B-D) antibody for reaction, after which measurement is conducted by flow cytometry. In the drawings and tables, the abbreviation “PER” is used."}, "IL-12": {"system": "IL-12", "assay": "IL-12 measurement by ELISA", "format": "in vivo, human", "settings": "Case 2; per date of visit", "description": "Phytohemagglutinin (manufactured by Difco) is added to 200 μl of the cell suspension thus obtained to provide a concentration of 20 μg/ml, and then the mixture is cultured using a 96 well microplate under 5% CO2 at 37° C. for 24 hours."}, "[1]": {"system": "non-small-cell lung cancer, prostatic cancer and the like", "settings": "cited from earlier work"}, "tumor markers": {"system": "tumor markers", "assay": "Tumor markers in clinical testing", "format": "in vivo, human", "description": "A commercially available product was used for each of the markers used in the clinical testing, and measurement values were shown in accordance with the respective recommended methods. All abbreviations shown are in accordance with common methods of presentation."}, "TNFα": {"system": "TNFα", "assay": "TNFα measurement by ELISA", "format": "in vivo, human", "settings": "Case 2; per date of visit", "description": "After washing, 10% fetal bovine serum (FBS)-added RPMI-1640 culture medium was added for preparation to provide a cell count of 1×10^6/ml. Phytohemagglutinin (30 μg/ml) (manufactured by Difco) was added to 200 μl of the cell suspension thus obtained, and then the mixture was cultured using a 96 well microplate under 5% CO2 at 37° C. for 24 hours."}, "[2]": {"system": "Th1 cytokines (TNFα, IFNγ, IL-12)", "protocol": "In this case, a measurement kit purchased from R&D Systems was used. In practice, to each well of a 96-well microplate were added 50 μl of a measuring diluent, Assay Diluent RD1F, and 200 μl of a standard solution or samples prepared by the method for preparing the aforementioned samples for cytokine measurement, after which the samples were allowed to stand still at room temperature for 2 hours for reaction. Thereafter, 200 μl of horseradish peroxidase-labeled anti-IL12 antibody was added to the solution of each well, and the wells were then allowed to stand still at room temperature for 2 hours. After removing the reaction solution from each well and washing three times, 200 μl of chromophore solution was added to each well, the wells were allowed to stand still at room temperature for 20 minutes, and 50 μl of enzyme reaction stopping solution was then added to each well. The absorbance of each sample was measured at 450 nm with Emax (from Wako Pure Chemical Industries, Ltd.) employing 550 nm as a control. The amount of IL-12 is represented in pg/ml.\nMeasurement of IFNγ was conducted by enzyme immunoassay (EIA) using the IFNγ EASIA kit available from BioSource Europe SA. […]"}, "pulmonary adenocarcinoma [3]": {"system": "pulmonary adenocarcinoma", "settings": "IRESSA alone, reported up to now; cited from earlier work"}, "pulmonary adenocarcinoma [4]": {"system": "pulmonary adenocarcinoma", "assay": "Efficacy judgment on patients (CR, PR, LNC, SNC, PD)", "protocol": "(§3) Further, similarly to Example 1, an IL-12 inducer, shark cartilage (Seishin Enterprise Co., Ltd.), and a saccharide (NK, NKT activator) having an α1,3 structure were administered to the patients in each case according to the respective recommended prescriptions."}, "[5]": {"system": "Th1/Th2 helper T-cells (CD4)", "assay": "Th1/Th2 cell ratio by flow cytometry", "format": "in vivo, human", "settings": "Case 2; per date of visit", "description": "The Th1/Th2 cell ratio was determined according to an ordinary method by helper T(Th)-cell line three-color analytical assay using flow cytometry.\nFirst, blood collected from cancer patients was treated for 4 hours at 37° C. with phorbol 12-myristate 13 acetate and ionomycin to stimulate cells in the blood to produce cytokines. Next, Breferdin A was added to stop the production reaction, cell surface marker CD4 was stained using an anti-CD4 antibody CD4-PC5 (Beckman Coulter), the cells were fixed and then subjected to hemolysis using FACS Lysing Solution (Nippon Becton Dickinson Co., Ltd.). Thereafter, cells were permeabilized with FACS Permeabilizing Solution (Nippon Becton Dickinson Co., Ltd.), and intracellular cytokines were stained using anti-IFNγ antibody/anti-IL-4 antibody (Fastimmune IFNγ FITC/IL-4 PE, from Nippon Becton Dickinson Co., Ltd.), and then measured and analysed with a flow cytometer (FACS Calibur, Becton Dickinson)."}, "IFNγ": {"system": "IFNγ", "assay": "IFNγ measurement by EIA", "format": "in vivo, human", "settings": "Case 2; per date of visit", "description": "(§2) After washing, 10% fetal bovine serum (FBS)-added RPMI-1640 culture medium is added for preparation to provide a cell count of 1×10^6. Phytohemagglutinin (manufactured by Difco) is added to 200 μl of the cell suspension thus obtained to provide a concentration of 20 μg/ml, and then the mixture is cultured using a 96 well microplate under 5% CO2 at 37° C. for 24 hours."}, "prostatic cancer": {"system": "prostatic cancer", "assay": "Efficacy judgment on patients", "format": "in vivo, human", "settings": "Case 2; IRESSA 250 mg/day combined with NITC, after one month", "protocol": "as §3"}, "VEGF": {"system": "VEGF", "assay": "Serum VEGF by ELISA", "format": "in vivo, human", "settings": "per date of visit", "description": "(Measurement of vascular endothelial growth factor/VEGF, basic fibroblast growth factor/bFGF and neovascularization inhibitor endostatin/endostatin)\nSerum concentrations were measured using commercially available kits for each enzyme linked immunosorbent assay (ELISA) ([…] Human VEGF, […] Human bFGF, […] Human Endostatin, from Cytimmune Sciences Inc.)."}, "IL-10": {"system": "IL-10", "assay": "IL-10 measurement", "format": "in vivo, human", "settings": "Case 2; per date of visit", "description": "as §2"}, "[6]": {"settings": "IRESSA alone, reported clinical results"}, "[7]": {"settings": "Case 1, IRESSA added to NITC, after one and a half months"}, "[8]": {"settings": "Case 3, IRESSA with NITC, approximately 1 month"}}}
{"smiles": "COc1cc2ncnc(Nc3ccc(F)c(Cl)c3)c2cc1OCCCN1CCOCC1", "note": "[IRESSA]", "values": [{"measurement": "CD3+ CD161+ (16%)", "setting": "CD3+CD161+ NKT cell", "value": 17.0, "unit": "%"}, {"measurement": "CD3− CD161+ (11%)", "setting": "CD3−CD161+ NK cell", "value": 12.3, "unit": "%"}, {"measurement": "CD8+ PER+ (14%)", "setting": "CD8+ perforin+ cells", "value": 7.2, "unit": "%"}, {"measurement": "IL-12 (7.8 pg/ml)", "setting": "IL-12", "value": 72.4, "unit": "pg/mL"}, {"measurement": "period to reach complete remission", "setting": "[1]; IRESSA alone, extremely rare cases", "value": "≥ 4", "unit": "months"}, {"measurement": "CR (complete remission) found", "setting": "[1]; [6]", "value": "almost no CR"}, {"measurement": "PR (partial remission) cases", "setting": "[1]; [6]", "value": "10 to 20", "unit": "%"}, {"measurement": "cessation of proliferation (NC)", "setting": "[1]; treatment by IRESSA", "value": "about 50%"}, {"measurement": "reduction (PR) in cancer cells", "setting": "[1]; treatment by IRESSA", "value": "about 20%"}, {"measurement": "various tumor markers", "setting": "tumor markers; [7]", "value": "normalized"}, {"measurement": "CA15-3 (30 U/ml)", "setting": "tumor markers; Case 1, per date of visit", "value": 26, "unit": "U/ml"}, {"measurement": "CA19-9 (37 U/ml)", "setting": "tumor markers; Case 1, per date of visit", "value": 32, "unit": "U/ml"}, {"measurement": "CEA (5.0 ng/ml)", "setting": "tumor markers; Case 1, per date of visit", "value": 4.5, "unit": "ng/mL"}, {"measurement": "NCC-ST-439 (7.0 U/ml)", "setting": "tumor markers; Case 1, per date of visit", "value": 6.7, "unit": "U/ml"}, {"measurement": "SPAN-1 (30 U/ml)", "setting": "tumor markers; Case 1, per date of visit", "value": 16, "unit": "U/ml"}, {"measurement": "Sielyl LEX-1 (38 U/ml)", "setting": "tumor markers; Case 1, per date of visit", "value": 36, "unit": "U/ml"}, {"measurement": "PSA value", "setting": "tumor markers; Case 2, IRESSA combined with NITC, after one month, normalized", "value": 4.0, "unit": "ng/mL"}, {"measurement": "1CTP (4.5 ng/ml)", "setting": "tumor markers; Case 2, per date of visit", "value": 2.5, "unit": "ng/mL"}, {"measurement": "CA19-9 (37 U/ml)", "setting": "tumor markers; Case 2, per date of visit", "value": 27, "unit": "U/ml"}, {"measurement": "Gamma-seminoprotein (4.0 ng/ml)", "setting": "tumor markers; Case 2, per date of visit", "value": 4.0, "unit": "ng/mL"}, {"measurement": "PA (RIA) (4.0 ng/ml)", "setting": "tumor markers; Case 2, per date of visit", "value": 4.0, "unit": "ng/mL"}, {"measurement": "PAP (EIA) (3.0 ng/ml)", "setting": "tumor markers; Case 2, per date of visit", "value": 1.4, "unit": "ng/mL"}, {"measurement": "tumor marker CEA", "setting": "tumor markers; Case 3, IRESSA with NITC, approximately 1 month, from 256 ng/ml prior to the treatment", "value": 172, "unit": "ng/mL"}, {"measurement": "SLX-1", "setting": "tumor markers; Case 3, IRESSA with NITC, approximately 1 month, from 480 U/ml prior to the treatment", "value": 140, "unit": "U/ml"}, {"measurement": "TNF α (1000 pg/ml)", "setting": "TNFα", "value": 3420, "unit": "pg/mL"}, {"measurement": "TNFα, IFNγ, and IL-12", "setting": "[2]; [7]", "value": "activated at levels exceeding standard values"}, {"measurement": "induced production of TNFα, IFNγ, and IL-12", "setting": "[2]; [8]", "value": "increased"}, {"measurement": "proportion of effective cases", "setting": "pulmonary adenocarcinoma [3]", "value": "around 20%"}, {"measurement": "carcinomatous pleural fluid and primary lung cancer", "setting": "pulmonary adenocarcinoma [4]; Case 1, IRESSA 250 mg per day added to NITC, after one and a half months", "value": "completely disappeared"}, {"measurement": "bone metastasis to right hip joint, cervical vertebrae and thoracic vertebrae", "setting": "pulmonary adenocarcinoma [4]; [7]", "value": "cured"}, {"measurement": "miliary lung metastasis", "setting": "pulmonary adenocarcinoma [4]; [8]", "value": "almost disappeared"}, {"measurement": "multiple costal metastasis", "setting": "pulmonary adenocarcinoma [4]; [8]", "value": "disappeared"}, {"measurement": "primary focus in the right lung", "setting": "pulmonary adenocarcinoma [4]; [8]", "value": "reduced by half"}, {"measurement": "Ratio of TH1/TH2 (CD4) (7 or more)", "setting": "[5]", "value": 2.7}, {"measurement": "IFN γ (10 IU/ml)", "setting": "IFNγ", "value": 46.2, "unit": "IU/ml"}, {"measurement": "multiple bone metastasis", "setting": "prostatic cancer", "value": "complete remission"}, {"measurement": "VEGF", "setting": "VEGF; Case 1", "value": 320, "unit": "pg/mL"}, {"measurement": "VEGF", "setting": "VEGF; Case 2", "value": 342, "unit": "pg/mL"}, {"measurement": "IL-10", "setting": "IL-10", "value": 154, "unit": "pg/mL"}]}
